# According to BindingDB's records for doi:10.1016/j.ejmech.2022.114542 (National Institute of Pharmaceutical Education and …, 2022):
# Assay: Inhibition of ABCG2 efflux pump in multi-drug resistance human HL-60 cells assessed as reversal of daunorubicin sensitivity
smiles,measurement,value
CO[C@@H]1[C@H](N(C)C(=O)c2ccccc2)C[C@H]2O[C@]1(C)n1c3ccccc3c3c4c(c5c6ccccc6n2c5c31)C(=O)NC4 [PKC-412],IC50,4.44 µM
